According to publication PMC11020896, “Development of a ^99mTc-labeled tetrazine for pretargeted SPECT imaging using an alendronic acid-based bone targeting model” (PLOS ONE, 2024):

What was measured:
[1] = tested on: Healthy Balb/c female mice; test: SPECT/CT quantitative image analysis of 99mTc-labeled Tzs (pretargeted with Aln-TCO, saline control, or directly targeted); type: in vivo; settings: for blood pool activity: directly targeted Aln-TCO
Procedure: (§1) The study was conducted in compliance with the guidelines set by the Canadian Council on Animal Care (CCAC) and approved by the Animal Care Committee (ACC) at the University of British Columbia (A20-0132). Healthy Balb/c female mice (~25 g) were anesthetized using isoflurane delivered via a precision vaporizer (5% in oxygen for induction, between 1.5 and 2.5% in oxygen for maintenance) and received 100 μL of a 2 mg/kg solution of Aln-TCO in saline (pretargeted groups), or 100 μL saline (control groups) via intravenous injection. After 1 h, mice were anesthetized again and received another i.v. injection containing 100 μL of ^99mTc labeled Tzs in saline, with an average activity of 17.58 MBq, as well as a subcutaneous injection of Lactated Ringer’s solution (0.5 mL) to ensure hydration before each imaging scan. After the injection, a VECTor/CT multimodal preclinical scanner (MILabs, The Netherlands) equipped with a HEUHR-1 mm mouse pinhole collimator was used to obtain static whole-body images. The first scans were obtained with a single frame lasting 25 minutes, followed by scans at 2- and 6-hours post-injection, each with a single frame lasting 40 and 50 minutes, respectively.
Throughout the scanning process, mice were maintained under isoflurane anesthesia and kept warm with a heating pad to ensure constant body temperature. Following each SPECT acquisition, a whole-body CT scan was performed to obtain anatomical information and the two images were registered. The ^99mTc photopeak window was centered at 140 keV with a 25% energy window width. SPECT image reconstructions were carried out using a pixel-ordered subset expectation maximization (POSEM) algorithm with 16 subsets, 6 iterations, and an isotropic 0.4 mm voxel grid to enable quantitative analysis. The images were decay corrected, and after CT registration, attenuation correction was applied. For visual representation, the reconstructed volumes of SPECT scans were post-filtered with a 3D Gaussian filter. CT scans were conducted using a tube setting of 55 kV and 615 μA, and 2 frames of 180 projections over 360 degrees were captured in step and shoot rotation mode. The acquired projection data was reconstructed using SkyScan NRecon software to generate a 3D CT image on 0.169 mm^3 voxel size. Volumes of interest (VOIs), in the left ventricle of the heart (blood pool), liver (n = 3), bladder, kidney (n = 2), shoulder and knee joint (n = 2, respectively) were manually defined using AMIDE [49] (v.1.0.5) to determine the time activity pattern per target organ. The average organ activity per volume was obtained from the SPECT images and the %ID/g of tissue were extracted from each organ. To relate the scanner units (counts/pixel) to radioactivity concentration (MBq/mL), a calibration factor was determined scanning a source with a known concentration of ^99mTc. Following the last time imaging time point (6 h, except mice injected with ^99mTc-3, which were sacrificed 24 h p.i.), mice were sacrificed via CO2 asphyxiation under isoflurane anesthesia. Blood was recovered via cardiac puncture and organs of interest were dissected out, cleaned and weighed. The bone uptake of the shoulder was measured by measuring the activity of scapula and humerus, cut below the elbow joint, while knee uptake was measured in the femur, cut below the knee joint. […] The activity was quantified on a calibrated Cobra II Autogamma counter (Packard Instruments, USA) and decay corrected to the time of injection. […]

[2] = tested on: Healthy Balb/c female mice; test: Post-mortem (ex vivo) biodistribution after last imaging time point, gamma counter; type: in vivo
Procedure: as §1
Throughout the scanning process, mice were maintained under isoflurane anesthesia and kept warm with a heating pad to ensure constant body temperature. Following each SPECT acquisition, a whole-body CT scan was performed to obtain anatomical information and the two images were registered. The ^99mTc photopeak window was centered at 140 keV with a 25% energy window width. SPECT image reconstructions were carried out using a pixel-ordered subset expectation maximization (POSEM) algorithm with 16 subsets, 6 iterations, and an isotropic 0.4 mm voxel grid to enable quantitative analysis. The images were decay corrected, and after CT registration, attenuation correction was applied. For visual representation, the reconstructed volumes of SPECT scans were post-filtered with a 3D Gaussian filter. CT scans were conducted using a tube setting of 55 kV and 615 μA, and 2 frames of 180 projections over 360 degrees were captured in step and shoot rotation mode. The acquired projection data was reconstructed using SkyScan NRecon software to generate a 3D CT image on 0.169 mm^3 voxel size. Volumes of interest (VOIs), in the left ventricle of the heart (blood pool), liver (n = 3), bladder, kidney (n = 2), shoulder and knee joint (n = 2, respectively) were manually defined using AMIDE [49] (v.1.0.5) to determine the time activity pattern per target organ. The average organ activity per volume was obtained from the SPECT images and the %ID/g of tissue were extracted from each organ. To relate the scanner units (counts/pixel) to radioactivity concentration (MBq/mL), a calibration factor was determined scanning a source with a known concentration of ^99mTc. Following the last time imaging time point (6 h, except mice injected with ^99mTc-3, which were sacrificed 24 h p.i.), mice were sacrificed via CO2 asphyxiation under isoflurane anesthesia. Blood was recovered via cardiac puncture and organs of interest were dissected out, cleaned and weighed. The bone uptake of the shoulder was measured by measuring the activity of scapula and humerus, cut below the elbow joint, while knee uptake was measured in the femur, cut below the knee joint. Bone samples were thoroughly cleaned from muscle and connective tissue. The activity was quantified on a calibrated Cobra II Autogamma counter (Packard Instruments, USA) and decay corrected to the time of injection.

[3] = directly targeted Aln-TCO, biodistribution 6 h p.i., ratio of %ID/g
[4] = directly targeted Aln-TCO, sacrificed 6 h p.i.

O=C(O)CN(CCNC(=O)CCOCCOCCOCCOCCOCCOCCOCCOCCNC(=O)CCCC(=O)Nc1ccc(-c2nncnn2)cc1)Cc1cccc(C(=O)O)n1 [Tz 4, 6-(38-((4-(1,2,4,5-tetrazin-3-yl)phenyl)amino)-2-(carboxymethyl)-6,34,38-trioxo-9,12,15,18,21,24,27,30-octaoxa-2,5,33-triazaoctatriacontyl)picolinic acid]
bone accumulation, pretargeted vs. non-targeted group ([1]; image analysis of shoulder and knee at 0, 2 and 6 h p.i.): did not show statistically significant bone uptake at any time point compared to the saline control

O=C(O)CN(CCNC(=O)CCCC(=O)Nc1ccc(-c2nnc(-c3ccccn3)nn2)nc1)Cc1cccc(C(=O)O)n1 (99mTc complex, metal not drawn) [Tz 1, 6-(((carboxymethyl)(2-(5-oxo-5-((6-(6-(pyridin-2-yl)-1,2,4,5-tetrazin-3-yl)pyridin-3-yl)amino)pentanamido)ethyl)amino)methyl)picolinic acid]
difference in blood pool activity, 1* vs 1a ([1]; 6 h p.i.): 15 fold
blood pool activity ([1]; image analysis, 0 h): 27.35 ± 3.79 %ID/g
liver activity over time ([1]; image analysis, 0-6 h, directly targeted): increase over time
blood pool activity ([1]; image analysis, 6 h p.i.): 3.66 ± 0.65 %ID/g
Knee/Blood ratio [2, 3]: 2.39 ± 0.09
Knee/Liver ratio [2, 3]: 0.17 ± 0.09
Shoulder/Blood ratio [2, 3]: 1.29 ± 0.30
Shoulder/Liver ratio [2, 3]: 0.09 ± 0.30
Bladder activity, post-mortem biodistribution [2, 4]: 1.22 ± 0.04 % ID/g
Blood activity, post-mortem biodistribution [2, 4]: 3.82 ± 0.32 % ID/g
Brain activity, post-mortem biodistribution [2, 4]: 0.10 ± 0.01 % ID/g
Heart activity, post-mortem biodistribution [2, 4]: 2.87 ± 0.27 % ID/g
Intestine activity, post-mortem biodistribution [2, 4]: 3.85 ± 0.49 % ID/g
Kidney activity, post-mortem biodistribution [2, 4]: 9.04 ± 0.60 % ID/g
Knee activity, post-mortem biodistribution [2, 4]: 9.13 ± 0.73 % ID/g
Liver activity, post-mortem biodistribution [2, 4]: 54.39 ± 4.03 % ID/g
Lung activity, post-mortem biodistribution [2, 4]: 6.70 ± 0.85 % ID/g
Muscle activity, post-mortem biodistribution [2, 4]: 0.31 ± 0.01 % ID/g
Pancreas activity, post-mortem biodistribution [2, 4]: 1.20 ± 0.20 % ID/g
Shoulder activity, post-mortem biodistribution [2, 4]: 4.91 ± 1.43 % ID/g
Spleen activity, post-mortem biodistribution [2, 4]: 38.03 ± 4.69 % ID/g
Stomach activity, post-mortem biodistribution [2, 4]: 1.70 ± 0.10 % ID/g
uptake in liver and spleen ([2]; directly targeted, 6 h p.i.): strong uptake
